Measured values taken from PubChem BioAssay (NCI).
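Where inhibition never reached the appropriate level, the endpoint shown equals the highest concentration tested. Otherwise, values were interpolated linearly from a five-concentration, 48-hour dose response in 96-well plates. TGI: total growth inhibition.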

Columns and labels:
Assay in all cases: NCI-60 cell line screen, 48 h
HL-60(TB) leukemia = tested on: HL-60(TB) leukemia
UACC-62 melanoma = tested on: UACC-62 melanoma
K-562 leukemia = tested on: K-562 leukemia
HCT-116 colon = tested on: HCT-116 colon
MDA-MB-231 breast = tested on: MDA-MB-231 breast
HCT-15 colon = tested on: HCT-15 colon
NCI-H460 lung = tested on: NCI-H460 lung
OVCAR-4 ovarian = tested on: OVCAR-4 ovarian
SR leukemia = tested on: SR leukemia
SK-MEL-28 melanoma = tested on: SK-MEL-28 melanoma
786-0 renal = tested on: 786-0 renal
COLO 205 colon = tested on: COLO 205 colon
HOP-62 NSCLC = tested on: HOP-62 NSCLC

SMILES	TGI (HL-60(TB) leukemia) [µM]	TGI (UACC-62 melanoma) [µM]	TGI (K-562 leukemia) [µM]	TGI (HCT-116 colon) [µM]	TGI (MDA-MB-231 breast) [µM]	TGI (HCT-15 colon) [µM]	TGI (NCI-H460 lung) [µM]	TGI (OVCAR-4 ovarian) [µM]	TGI (SR leukemia) [µM]	TGI (SK-MEL-28 melanoma) [µM]	TGI (786-0 renal) [µM]	TGI (COLO 205 colon) [µM]	TGI (HOP-62 NSCLC) [µM]
CCOC(=O)c1cc2c([nH]1)C(=O)CC1=C2CCN1Cc1ccccc1	54.1	28.4	25.9	25.8	28.8	21.6	39.2	26.8	33.4	32.7	31	31.8	–
Cc1ccc(-n2c(Cn3nnc(-c4cccnc4)n3)nn(C3OC(COC(=O)c4ccccc4)C(OC(=O)c4ccccc4)C3OC(=O)c3ccccc3)c2=S)cc1 (stereo not given)	–	> 100	> 100	> 100	> 100	> 100	> 100	> 100	–	> 100	> 100	> 100	> 100
O=C(CCc1ccc(O)c(O)c1)NCCc1cc(OCc2ccccc2)cc(OCc2ccccc2)c1	7.27	47.4	> 100	31.6	48.8	11	20.2	–	7.18	46.3	40	14.6	37
O=C(OCC12CC3CC(CC(C3)C1)C2)c1ccc(NCc2cc(O)ccc2O)cc1	15	3.93	> 49.2	10.3	11.6	5.75	7.5	6.28	–	3.54	2.35	2.8	16
CC(C)[Si](OC1=C(C(=O)N(C)c2ccccc2Cl)CCC1)(C(C)C)C(C)C	–	–	–	37	30.9	30.6	62.1	38.1	–	39.7	48.9	34.3	32.3
COc1ccc(C(C2C(=O)N(C)C(=O)N(C)C2=O)C(F)(F)C(=O)N(C)C)cc1 (stereo not given)	–	> 100	–	> 100	> 100	> 100	> 100	> 100	–	> 100	> 100	> 100	> 100
CCCCCC(=O)OCC1(CO)C/C(=C\CC(C(C)C)C(C)C)C(=O)O1 (stereo not given)	–	> 100	77.5	> 100	> 100	> 100	> 100	> 100	> 100	> 100	> 100	53.5	> 100
Cc1ccc2[nH]c3[nH]c(=O)[nH]c(=O)c3c2c1	> 100	> 100	> 100	> 100	–	> 100	–	–	–	–	> 100	> 100	> 100
COC(=O)NN=C(c1ccc(Cl)cc1)c1ccc(Cl)cc1	> 100	> 100	> 100	> 100	> 100	> 100	> 100	> 100	> 100	> 100	> 100	> 100	–
Cc1ccc2c(=O)c(-c3nnc(N)s3)c[nH]c2n1	> 100	> 100	> 100	> 100	> 100	> 100	> 100	> 100	–	> 100	> 100	> 100	> 100
